# Data published in ChEMBL document CHEMBL3885881, “DrugMatrix”.
# Species on record: Rattus norvegicus
# Test: DrugMatrix - Regimen: Daily Repeat
# Type: toxicity, organism-based, Sprague-Dawley
# Design: regimen Daily Repeat, gender Male, age 6-8 weeks
# Settings: in vivo, po, route oral GAVAGE, vehicle 100 % WATER; for ABSOLUTE BASOPHIL / ABSOLUTE EOSINOPHIL / ABSOLUTE LYMPHOCYTE / ABSOLUTE MONOCYTE / ABSOLUTE SEGMENTED NEUTROPHIL / BASOPHIL / EOSINOPHIL / ERYTHROCYTE COUNT / HEMATOCRIT / HEMOGLOBIN / LEUKOCYTE COUNT / LYMPHOCYTE / MEAN CORPUSCULAR HEMOGLOBIN / MEAN CORPUSCULAR HEMOGLOBIN CONCENTRATION / MEAN CORPUSCULAR VOLUME / MONOCYTE / NEUTROPHIL / NUCLEATED RED BLOOD CELLS / PLATELET COUNT: tissue Blood; for ALANINE AMINOTRANSFERASE / ALBUMIN / ALKALINE PHOSPHATASE / ASPARTATE AMINOTRANSFERASE / BLOOD UREA NITROGEN / CARBON DIOXIDE / CHLORIDE / CHOLESTEROL / CREATINE PHOSPHOKINASE / CREATININE / GLUCOSE / LACTATE DEHYDROGENASE / LIPASE / PHOSPHORUS / POTASSIUM / SODIUM / TOTAL BILIRUBIN / TOTAL PROTEIN / URIC ACID: tissue Plasma
# [1] = 0 mg/kg, 72 h, dose level Control, time 3 day
# [2] = 0 mg/kg, 120 h, dose level Control, time 5 day
# [3] = 4.5 mg/kg, 72 h, dose level Low, time 3 day
compound,measurement,setting,value
NN [HYDRAZINE],ABSOLUTE BASOPHIL,[1],0 CELLS/uL
same,ABSOLUTE EOSINOPHIL,[1],20.17 CELLS/uL
same,ABSOLUTE LYMPHOCYTE,[1],12371.67 CELLS/uL
same,ABSOLUTE MONOCYTE,[1],166 CELLS/uL
same,ABSOLUTE SEGMENTED NEUTROPHIL,[1],1292.17 CELLS/uL
same,BASOPHIL,[1],0%
same,EOSINOPHIL,[1],0.17%
same,ERYTHROCYTE COUNT,[1],5.46 x10E6/uL
same,HEMATOCRIT,[1],34.38%
same,HEMOGLOBIN,[1],13.32 G/DL
same,LEUKOCYTE COUNT,[1],13.85 x10E3/uL
same,LYMPHOCYTE,[1],88.5%
same,MEAN CORPUSCULAR HEMOGLOBIN,[1],24.42 pg
same,MEAN CORPUSCULAR HEMOGLOBIN CONCENTRATION,[1],38.7 G/DL
same,MEAN CORPUSCULAR VOLUME,[1],63.07 fL
same,MONOCYTE,[1],1.17%
same,NEUTROPHIL,[1],10.17%
same,NUCLEATED RED BLOOD CELLS,[1],0.17 /100WBC
same,PLATELET COUNT,[1],1193.5 x10E3/uL
same,ALANINE AMINOTRANSFERASE,[1],54.5 u/L
same,ALBUMIN,[1],4.02 G/DL
same,ALKALINE PHOSPHATASE,[1],346.5 u/L
same,ASPARTATE AMINOTRANSFERASE,[1],103.17 u/L
same,BLOOD UREA NITROGEN,[1],16.5 mg/dL
same,CARBON DIOXIDE,[1],29.83 mmol/L
same,CHLORIDE,[1],99.5 MEQ/L
same,CHOLESTEROL,[1],72.5 mg/dL
same,CREATINE PHOSPHOKINASE,[1],532.5 u/L
same,CREATININE,[1],0.18 mg/dL
same,GLUCOSE,[1],168.5 mg/dL
same,LACTATE DEHYDROGENASE,[1],536.5 u/L
same,LIPASE,[1],11.17 u/L
same,PHOSPHORUS,[1],11.48 mg/dL
same,POTASSIUM,[1],5.95 MEQ/L
same,SODIUM,[1],140.5 MEQ/L
same,TOTAL BILIRUBIN,[1],0.18 mg/dL
same,TOTAL PROTEIN,[1],5.77 G/DL
same,URIC ACID,[1],1.42 mg/dL
same,ABSOLUTE BASOPHIL,[2],0 CELLS/uL
same,ABSOLUTE EOSINOPHIL,[2],22.83 CELLS/uL
same,ABSOLUTE LYMPHOCYTE,[2],12202.83 CELLS/uL
same,ABSOLUTE MONOCYTE,[2],158 CELLS/uL
same,ABSOLUTE SEGMENTED NEUTROPHIL,[2],1283 CELLS/uL
same,BASOPHIL,[2],0%
same,EOSINOPHIL,[2],0.17%
same,ERYTHROCYTE COUNT,[2],5.88 x10E6/uL
same,HEMATOCRIT,[2],36.62%
same,HEMOGLOBIN,[2],14.07 G/DL
same,LEUKOCYTE COUNT,[2],13.67 x10E3/uL
same,LYMPHOCYTE,[2],89.5%
same,MEAN CORPUSCULAR HEMOGLOBIN,[2],23.95 pg
same,MEAN CORPUSCULAR HEMOGLOBIN CONCENTRATION,[2],38.43 G/DL
same,MEAN CORPUSCULAR VOLUME,[2],62.28 fL
same,MONOCYTE,[2],1.17%
same,NEUTROPHIL,[2],9.17%
same,NUCLEATED RED BLOOD CELLS,[2],0.17 /100WBC
same,PLATELET COUNT,[2],1198 x10E3/uL
same,ALANINE AMINOTRANSFERASE,[2],51 u/L
same,ALBUMIN,[2],4.3 G/DL
same,ALKALINE PHOSPHATASE,[2],343 u/L
same,ASPARTATE AMINOTRANSFERASE,[2],89.83 u/L
same,BLOOD UREA NITROGEN,[2],17.67 mg/dL
same,CARBON DIOXIDE,[2],27.17 mmol/L
same,CHLORIDE,[2],98.33 MEQ/L
same,CHOLESTEROL,[2],82.5 mg/dL
same,CREATINE PHOSPHOKINASE,[2],533.33 u/L
same,CREATININE,[2],0.18 mg/dL
same,GLUCOSE,[2],152.67 mg/dL
same,LACTATE DEHYDROGENASE,[2],220.33 u/L
same,LIPASE,[2],11.5 u/L
same,PHOSPHORUS,[2],11.25 mg/dL
same,POTASSIUM,[2],6.29 MEQ/L
same,SODIUM,[2],140.53 MEQ/L
same,TOTAL BILIRUBIN,[2],0.22 mg/dL
same,TOTAL PROTEIN,[2],6.12 G/DL
same,URIC ACID,[2],1.42 mg/dL
same,ABSOLUTE BASOPHIL,[3],0 CELLS/uL
same,ABSOLUTE EOSINOPHIL,[3],52 CELLS/uL
same,ABSOLUTE LYMPHOCYTE,[3],11298 CELLS/uL
same,ABSOLUTE MONOCYTE,[3],113 CELLS/uL
same,ABSOLUTE SEGMENTED NEUTROPHIL,[3],1470.33 CELLS/uL
same,BASOPHIL,[3],0%
same,EOSINOPHIL,[3],0.33%
same,ERYTHROCYTE COUNT,[3],5.57 x10E6/uL
same,HEMATOCRIT,[3],35.73%
same,HEMOGLOBIN,[3],13.97 G/DL
same,LEUKOCYTE COUNT,[3],12.93 x10E3/uL
same,LYMPHOCYTE,[3],87.33%
same,MEAN CORPUSCULAR HEMOGLOBIN,[3],25.1 pg
same,MEAN CORPUSCULAR HEMOGLOBIN CONCENTRATION,[3],39.1 G/DL
same,MEAN CORPUSCULAR VOLUME,[3],64.2 fL
same,MONOCYTE,[3],1%
same,NEUTROPHIL,[3],11.33%
same,NUCLEATED RED BLOOD CELLS,[3],0.33 /100WBC
same,PLATELET COUNT,[3],1229.67 x10E3/uL
same,ALANINE AMINOTRANSFERASE,[3],44.67 u/L
same,ALBUMIN,[3],4.07 G/DL
same,ALKALINE PHOSPHATASE,[3],421.33 u/L
same,ASPARTATE AMINOTRANSFERASE,[3],89.67 u/L
same,BLOOD UREA NITROGEN,[3],13.33 mg/dL
same,CARBON DIOXIDE,[3],30.67 mmol/L
same,CHLORIDE,[3],99 MEQ/L
same,CHOLESTEROL,[3],73.67 mg/dL
same,CREATINE PHOSPHOKINASE,[3],298.33 u/L
same,CREATININE,[3],0.17 mg/dL
same,GLUCOSE,[3],155 mg/dL
same,LACTATE DEHYDROGENASE,[3],178.33 u/L
same,LIPASE,[3],10.67 u/L
same,PHOSPHORUS,[3],11.43 mg/dL
same,POTASSIUM,[3],6.44 MEQ/L
same,SODIUM,[3],142.33 MEQ/L
same,TOTAL BILIRUBIN,[3],0.2 mg/dL
same,TOTAL PROTEIN,[3],6.07 G/DL
same,URIC ACID,[3],1.73 mg/dL
